The source of these data is ChEMBL document CHEMBL5442219.

Holding throughout (conditions): Compound concentration 10 µM
In experiment [1] the target is T1, Muscarinic acetylcholine receptor M4 (Homo sapiens) (UniProt P08173).
T1 sequence (whole entry): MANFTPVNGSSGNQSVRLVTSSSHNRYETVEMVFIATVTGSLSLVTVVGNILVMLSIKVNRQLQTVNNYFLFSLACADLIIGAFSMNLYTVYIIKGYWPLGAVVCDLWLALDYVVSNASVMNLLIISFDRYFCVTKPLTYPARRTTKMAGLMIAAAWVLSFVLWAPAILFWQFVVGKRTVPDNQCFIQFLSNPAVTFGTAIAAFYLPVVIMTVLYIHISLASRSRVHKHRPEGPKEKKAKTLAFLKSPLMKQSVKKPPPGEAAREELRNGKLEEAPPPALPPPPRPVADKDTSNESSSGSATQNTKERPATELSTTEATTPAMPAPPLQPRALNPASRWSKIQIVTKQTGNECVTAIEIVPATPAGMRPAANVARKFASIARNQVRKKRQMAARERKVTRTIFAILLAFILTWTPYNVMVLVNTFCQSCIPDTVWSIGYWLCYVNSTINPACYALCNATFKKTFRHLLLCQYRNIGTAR
Description: PDSP Primary Binding target: CHRM4 - Compounds are tested at 10 uM concentration, plate are incubated at room temperature in the dark for 90 minutes. Reaction are stopped by vacuum filtration onto 0.3% polyethyleneimine soaked filter mats using Filtermate harvester. Scintilation cocktail is then melted onto microwave-dried filters on a hot plate and the radio activity is counted in Microbia counter.

The target of experiment [2] is T2, Alpha-2C adrenergic receptor (Homo sapiens) (UniProt P18825).
T2 sequence (whole entry): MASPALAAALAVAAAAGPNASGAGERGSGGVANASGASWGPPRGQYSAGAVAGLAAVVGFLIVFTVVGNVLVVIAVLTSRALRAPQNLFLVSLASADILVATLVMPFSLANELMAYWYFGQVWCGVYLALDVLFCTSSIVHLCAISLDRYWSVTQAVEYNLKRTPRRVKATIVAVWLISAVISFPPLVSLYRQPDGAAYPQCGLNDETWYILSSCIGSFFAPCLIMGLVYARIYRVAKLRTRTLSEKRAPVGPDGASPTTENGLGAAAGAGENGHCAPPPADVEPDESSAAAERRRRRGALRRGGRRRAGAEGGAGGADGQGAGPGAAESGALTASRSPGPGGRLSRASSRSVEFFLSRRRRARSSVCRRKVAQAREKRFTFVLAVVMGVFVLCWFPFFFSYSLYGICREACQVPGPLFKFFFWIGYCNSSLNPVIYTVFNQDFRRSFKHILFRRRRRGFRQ
Description: PDSP Primary Binding target: ADRA2C - Compounds are tested at 10 uM concentration, plate are incubated at room temperature in the dark for 90 minutes. Reaction are stopped by vacuum filtration onto 0.3% polyethyleneimine soaked filter mats using Filtermate harvester. Scintilation cocktail is then melted onto microwave-dried filters on a hot plate and the radio activity is counted in Microbia counter.

Experiment [3] deals with T3, Muscarinic acetylcholine receptor M5 (Homo sapiens) (UniProt P08912).
T3 sequence (whole entry): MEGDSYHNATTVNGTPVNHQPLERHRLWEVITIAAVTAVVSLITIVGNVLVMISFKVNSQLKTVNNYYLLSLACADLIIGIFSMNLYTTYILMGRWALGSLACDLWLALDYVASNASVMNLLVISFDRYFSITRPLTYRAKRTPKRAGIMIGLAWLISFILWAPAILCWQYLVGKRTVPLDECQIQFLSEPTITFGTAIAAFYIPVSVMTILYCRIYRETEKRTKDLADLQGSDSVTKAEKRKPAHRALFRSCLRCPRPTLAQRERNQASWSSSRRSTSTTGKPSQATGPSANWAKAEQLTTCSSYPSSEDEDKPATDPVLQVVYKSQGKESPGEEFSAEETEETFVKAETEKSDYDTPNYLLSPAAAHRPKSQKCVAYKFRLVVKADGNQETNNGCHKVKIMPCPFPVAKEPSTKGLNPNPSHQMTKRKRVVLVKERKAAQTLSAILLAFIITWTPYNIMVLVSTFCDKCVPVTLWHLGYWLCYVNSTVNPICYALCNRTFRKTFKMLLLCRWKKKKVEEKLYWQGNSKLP
Description: PDSP Primary Binding target: CHRM5 - Compounds are tested at 10 uM concentration, plate are incubated at room temperature in the dark for 90 minutes. Reaction are stopped by vacuum filtration onto 0.3% polyethyleneimine soaked filter mats using Filtermate harvester. Scintilation cocktail is then melted onto microwave-dried filters on a hot plate and the radio activity is counted in Microbia counter.

Experiment [4] addresses Sodium-dependent noradrenaline transporter (Homo sapiens) (UniProt P23975).
Description: PDSP Primary Binding target: SLC6A2 - Compounds are tested at 10 uM concentration, plate are incubated at room temperature in the dark for 90 minutes. Reaction are stopped by vacuum filtration onto 0.3% polyethyleneimine soaked filter mats using Filtermate harvester. Scintilation cocktail is then melted onto microwave-dried filters on a hot plate and the radio activity is counted in Microbia counter.
Experiment [5] has as its target T4, Muscarinic acetylcholine receptor M2 (Homo sapiens) (UniProt P08172).
T4 sequence (whole entry): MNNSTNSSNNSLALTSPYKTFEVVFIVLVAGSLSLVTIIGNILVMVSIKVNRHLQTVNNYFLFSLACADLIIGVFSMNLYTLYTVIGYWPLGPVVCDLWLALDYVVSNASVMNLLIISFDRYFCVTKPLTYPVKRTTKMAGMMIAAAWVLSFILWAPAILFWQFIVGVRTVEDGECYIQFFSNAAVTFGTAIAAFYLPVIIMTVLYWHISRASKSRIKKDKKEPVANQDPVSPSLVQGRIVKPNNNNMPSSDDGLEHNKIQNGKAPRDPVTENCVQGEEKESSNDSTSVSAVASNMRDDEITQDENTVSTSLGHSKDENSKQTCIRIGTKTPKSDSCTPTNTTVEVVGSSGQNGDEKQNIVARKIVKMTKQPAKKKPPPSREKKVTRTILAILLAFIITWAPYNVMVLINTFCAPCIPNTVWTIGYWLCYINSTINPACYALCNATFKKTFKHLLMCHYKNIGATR
Description: PDSP Primary Binding target: CHRM2 - Compounds are tested at 10 uM concentration, plate are incubated at room temperature in the dark for 90 minutes. Reaction are stopped by vacuum filtration onto 0.3% polyethyleneimine soaked filter mats using Filtermate harvester. Scintilation cocktail is then melted onto microwave-dried filters on a hot plate and the radio activity is counted in Microbia counter.

Experiment [6] deals with Sigma non-opioid intracellular receptor 1 (Homo sapiens) (UniProt Q99720).
Sequence of Sigma non-opioid intracellular receptor 1 (Homo sapiens) (Q99720 whole entry): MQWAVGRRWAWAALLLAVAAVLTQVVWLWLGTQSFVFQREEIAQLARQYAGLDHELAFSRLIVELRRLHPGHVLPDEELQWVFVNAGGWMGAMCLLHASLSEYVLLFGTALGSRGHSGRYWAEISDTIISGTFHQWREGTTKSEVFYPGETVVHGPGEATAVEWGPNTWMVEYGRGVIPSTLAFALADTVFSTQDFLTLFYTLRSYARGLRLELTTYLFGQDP
Description: PDSP Primary Binding target: SIGMAR1 - Compounds are tested at 10 uM concentration, plate are incubated at room temperature in the dark for 90 minutes. Reaction are stopped by vacuum filtration onto 0.3% polyethyleneimine soaked filter mats using Filtermate harvester. Scintilation cocktail is then melted onto microwave-dried filters on a hot plate and the radio activity is counted in Microbia counter.
The target of experiment [7] is T5, Alpha-2B adrenergic receptor (Homo sapiens) (UniProt P18089).
T5 sequence (whole entry): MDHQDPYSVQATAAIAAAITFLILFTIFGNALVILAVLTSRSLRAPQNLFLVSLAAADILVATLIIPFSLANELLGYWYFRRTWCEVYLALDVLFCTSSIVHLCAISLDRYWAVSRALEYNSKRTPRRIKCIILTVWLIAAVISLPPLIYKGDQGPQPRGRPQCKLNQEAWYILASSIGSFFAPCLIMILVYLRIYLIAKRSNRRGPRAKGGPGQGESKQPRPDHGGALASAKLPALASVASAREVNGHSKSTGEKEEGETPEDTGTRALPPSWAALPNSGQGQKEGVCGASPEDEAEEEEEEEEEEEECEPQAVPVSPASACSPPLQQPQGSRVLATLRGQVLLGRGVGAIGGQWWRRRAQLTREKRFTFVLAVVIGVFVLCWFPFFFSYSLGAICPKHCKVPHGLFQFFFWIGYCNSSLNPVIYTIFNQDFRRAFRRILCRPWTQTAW
Description: PDSP Primary Binding target: ADRA2B - Compounds are tested at 10 uM concentration, plate are incubated at room temperature in the dark for 90 minutes. Reaction are stopped by vacuum filtration onto 0.3% polyethyleneimine soaked filter mats using Filtermate harvester. Scintilation cocktail is then melted onto microwave-dried filters on a hot plate and the radio activity is counted in Microbia counter.

Experiment [8] has as its target 5-hydroxytryptamine receptor 6 (Homo sapiens) (UniProt P50406).
Description: PDSP Primary Binding target: HTR6 - Compounds are tested at 10 uM concentration, plate are incubated at room temperature in the dark for 90 minutes. Reaction are stopped by vacuum filtration onto 0.3% polyethyleneimine soaked filter mats using Filtermate harvester. Scintilation cocktail is then melted onto microwave-dried filters on a hot plate and the radio activity is counted in Microbia counter.
In experiment [9] the target is 5-hydroxytryptamine receptor 1E (Homo sapiens) (UniProt P28566).
Sequence of 5-hydroxytryptamine receptor 1E (Homo sapiens) (P28566 whole entry): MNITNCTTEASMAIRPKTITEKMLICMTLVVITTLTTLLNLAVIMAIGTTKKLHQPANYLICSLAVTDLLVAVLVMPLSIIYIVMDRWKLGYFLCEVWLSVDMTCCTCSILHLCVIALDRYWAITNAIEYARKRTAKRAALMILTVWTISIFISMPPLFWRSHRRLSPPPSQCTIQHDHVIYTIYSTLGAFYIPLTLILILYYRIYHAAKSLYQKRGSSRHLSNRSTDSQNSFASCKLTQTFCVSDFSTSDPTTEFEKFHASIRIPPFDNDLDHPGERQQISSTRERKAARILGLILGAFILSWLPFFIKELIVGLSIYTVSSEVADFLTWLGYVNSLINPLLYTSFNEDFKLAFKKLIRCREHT
Description: PDSP Primary Binding target: HTR1E - Compounds are tested at 10 uM concentration, plate are incubated at room temperature in the dark for 90 minutes. Reaction are stopped by vacuum filtration onto 0.3% polyethyleneimine soaked filter mats using Filtermate harvester. Scintilation cocktail is then melted onto microwave-dried filters on a hot plate and the radio activity is counted in Microbia counter.
In experiment [10] the target is Beta-1 adrenergic receptor (Homo sapiens) (UniProt P08588).
Sequence of Beta-1 adrenergic receptor (Homo sapiens) (P08588 whole entry, looked up): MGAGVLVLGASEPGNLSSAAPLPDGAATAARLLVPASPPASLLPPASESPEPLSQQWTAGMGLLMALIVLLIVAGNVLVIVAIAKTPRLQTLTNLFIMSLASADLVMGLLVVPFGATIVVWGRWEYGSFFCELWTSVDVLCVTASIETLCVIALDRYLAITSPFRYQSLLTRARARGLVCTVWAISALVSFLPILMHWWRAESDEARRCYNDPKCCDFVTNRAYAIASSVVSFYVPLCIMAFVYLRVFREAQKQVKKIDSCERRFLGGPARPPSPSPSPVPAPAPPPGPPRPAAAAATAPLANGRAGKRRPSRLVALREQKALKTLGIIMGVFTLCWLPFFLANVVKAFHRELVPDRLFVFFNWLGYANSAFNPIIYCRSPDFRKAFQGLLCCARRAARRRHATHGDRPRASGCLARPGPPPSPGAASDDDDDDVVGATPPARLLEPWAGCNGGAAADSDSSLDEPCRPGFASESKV
Description: PDSP Primary Binding target: ADRB1 - Compounds are tested at 10 uM concentration, plate are incubated at room temperature in the dark for 90 minutes. Reaction are stopped by vacuum filtration onto 0.3% polyethyleneimine soaked filter mats using Filtermate harvester. Scintilation cocktail is then melted onto microwave-dried filters on a hot plate and the radio activity is counted in Microbia counter.
Experiment [11] deals with Histamine H3 receptor (Homo sapiens) (UniProt Q9Y5N1).
Sequence of Histamine H3 receptor (Homo sapiens) (Q9Y5N1 whole entry): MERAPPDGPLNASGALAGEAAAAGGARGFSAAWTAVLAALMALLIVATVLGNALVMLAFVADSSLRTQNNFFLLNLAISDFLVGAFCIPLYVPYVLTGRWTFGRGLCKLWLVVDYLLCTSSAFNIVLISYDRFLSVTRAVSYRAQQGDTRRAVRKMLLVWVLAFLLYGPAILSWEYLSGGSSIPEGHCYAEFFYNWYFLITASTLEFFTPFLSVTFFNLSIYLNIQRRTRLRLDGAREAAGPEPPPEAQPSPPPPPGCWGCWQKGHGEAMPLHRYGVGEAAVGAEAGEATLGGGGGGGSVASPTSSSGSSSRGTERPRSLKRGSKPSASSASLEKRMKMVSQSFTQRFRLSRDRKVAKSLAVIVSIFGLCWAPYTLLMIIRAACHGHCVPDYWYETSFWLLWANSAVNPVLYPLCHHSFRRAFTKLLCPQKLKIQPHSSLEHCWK
Description: PDSP Primary Binding target: HRH3 - Compounds are tested at 10 uM concentration, plate are incubated at room temperature in the dark for 90 minutes. Reaction are stopped by vacuum filtration onto 0.3% polyethyleneimine soaked filter mats using Filtermate harvester. Scintilation cocktail is then melted onto microwave-dried filters on a hot plate and the radio activity is counted in Microbia counter.
In experiment [12] the target is Translocator protein (Homo sapiens) (UniProt P30536).
Sequence of Translocator protein (Homo sapiens) (P30536 whole entry): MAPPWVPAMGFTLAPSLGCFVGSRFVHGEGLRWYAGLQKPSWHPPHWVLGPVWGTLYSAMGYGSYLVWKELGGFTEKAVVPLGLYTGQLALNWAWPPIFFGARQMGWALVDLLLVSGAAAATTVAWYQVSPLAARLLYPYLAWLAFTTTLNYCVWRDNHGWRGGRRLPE
Description: PDSP Primary Binding target: TSPO - Compounds are tested at 10 uM concentration, plate are incubated at room temperature in the dark for 90 minutes. Reaction are stopped by vacuum filtration onto 0.3% polyethyleneimine soaked filter mats using Filtermate harvester. Scintilation cocktail is then melted onto microwave-dried filters on a hot plate and the radio activity is counted in Microbia counter.
In experiment [13] the target is Sodium-dependent serotonin transporter (Homo sapiens) (UniProt P31645).
Sequence of Sodium-dependent serotonin transporter (Homo sapiens) (P31645 whole entry, looked up): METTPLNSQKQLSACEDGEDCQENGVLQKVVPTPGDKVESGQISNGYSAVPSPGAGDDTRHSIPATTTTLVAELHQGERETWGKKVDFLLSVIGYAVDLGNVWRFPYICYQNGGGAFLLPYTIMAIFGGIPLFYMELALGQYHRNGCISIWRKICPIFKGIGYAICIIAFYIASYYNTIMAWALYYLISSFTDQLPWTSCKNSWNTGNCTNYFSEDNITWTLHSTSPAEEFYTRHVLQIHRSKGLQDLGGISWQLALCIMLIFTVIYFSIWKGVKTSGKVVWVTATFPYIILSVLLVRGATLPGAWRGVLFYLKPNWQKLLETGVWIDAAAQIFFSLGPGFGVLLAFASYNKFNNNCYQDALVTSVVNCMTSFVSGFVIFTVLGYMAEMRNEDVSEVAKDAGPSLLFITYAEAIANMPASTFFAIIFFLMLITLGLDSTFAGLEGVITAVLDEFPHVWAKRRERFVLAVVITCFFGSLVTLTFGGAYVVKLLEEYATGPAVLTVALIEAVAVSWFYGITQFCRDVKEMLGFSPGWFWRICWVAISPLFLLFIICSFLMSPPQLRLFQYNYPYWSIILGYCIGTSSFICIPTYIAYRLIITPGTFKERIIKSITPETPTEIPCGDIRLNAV
Description: PDSP Primary Binding target: SLC6A4 - Compounds are tested at 10 uM concentration, plate are incubated at room temperature in the dark for 90 minutes. Reaction are stopped by vacuum filtration onto 0.3% polyethyleneimine soaked filter mats using Filtermate harvester. Scintilation cocktail is then melted onto microwave-dried filters on a hot plate and the radio activity is counted in Microbia counter.
The target of experiment [14] is 5-hydroxytryptamine receptor 5A (Homo sapiens) (UniProt P47898).
Sequence of 5-hydroxytryptamine receptor 5A (Homo sapiens) (P47898 whole entry): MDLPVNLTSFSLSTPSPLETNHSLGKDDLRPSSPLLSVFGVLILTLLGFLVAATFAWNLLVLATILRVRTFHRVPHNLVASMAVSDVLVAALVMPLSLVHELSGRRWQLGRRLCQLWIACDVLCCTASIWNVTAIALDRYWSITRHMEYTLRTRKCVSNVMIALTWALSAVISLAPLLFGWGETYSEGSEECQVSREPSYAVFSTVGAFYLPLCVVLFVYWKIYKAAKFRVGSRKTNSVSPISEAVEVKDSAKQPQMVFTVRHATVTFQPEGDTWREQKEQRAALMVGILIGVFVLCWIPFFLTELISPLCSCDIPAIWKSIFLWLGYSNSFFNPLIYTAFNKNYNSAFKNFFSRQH
Description: PDSP Primary Binding target: HTR5A - Compounds are tested at 10 uM concentration, plate are incubated at room temperature in the dark for 90 minutes. Reaction are stopped by vacuum filtration onto 0.3% polyethyleneimine soaked filter mats using Filtermate harvester. Scintilation cocktail is then melted onto microwave-dried filters on a hot plate and the radio activity is counted in Microbia counter.

Sequence of 5-hydroxytryptamine receptor 6 (Homo sapiens) (P50406 whole entry): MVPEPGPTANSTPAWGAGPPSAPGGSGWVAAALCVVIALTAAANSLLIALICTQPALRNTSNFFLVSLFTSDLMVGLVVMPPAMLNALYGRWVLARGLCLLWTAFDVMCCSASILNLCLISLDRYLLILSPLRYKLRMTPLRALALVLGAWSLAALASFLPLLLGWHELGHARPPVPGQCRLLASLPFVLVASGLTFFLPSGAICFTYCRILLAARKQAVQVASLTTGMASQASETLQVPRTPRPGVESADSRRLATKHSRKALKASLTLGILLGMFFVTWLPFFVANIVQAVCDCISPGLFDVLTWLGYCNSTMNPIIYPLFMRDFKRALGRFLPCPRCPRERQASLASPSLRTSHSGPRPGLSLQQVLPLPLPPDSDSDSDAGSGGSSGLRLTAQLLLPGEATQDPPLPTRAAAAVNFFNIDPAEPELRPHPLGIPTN
Sequence of Sodium-dependent noradrenaline transporter (Homo sapiens) (P23975 whole entry): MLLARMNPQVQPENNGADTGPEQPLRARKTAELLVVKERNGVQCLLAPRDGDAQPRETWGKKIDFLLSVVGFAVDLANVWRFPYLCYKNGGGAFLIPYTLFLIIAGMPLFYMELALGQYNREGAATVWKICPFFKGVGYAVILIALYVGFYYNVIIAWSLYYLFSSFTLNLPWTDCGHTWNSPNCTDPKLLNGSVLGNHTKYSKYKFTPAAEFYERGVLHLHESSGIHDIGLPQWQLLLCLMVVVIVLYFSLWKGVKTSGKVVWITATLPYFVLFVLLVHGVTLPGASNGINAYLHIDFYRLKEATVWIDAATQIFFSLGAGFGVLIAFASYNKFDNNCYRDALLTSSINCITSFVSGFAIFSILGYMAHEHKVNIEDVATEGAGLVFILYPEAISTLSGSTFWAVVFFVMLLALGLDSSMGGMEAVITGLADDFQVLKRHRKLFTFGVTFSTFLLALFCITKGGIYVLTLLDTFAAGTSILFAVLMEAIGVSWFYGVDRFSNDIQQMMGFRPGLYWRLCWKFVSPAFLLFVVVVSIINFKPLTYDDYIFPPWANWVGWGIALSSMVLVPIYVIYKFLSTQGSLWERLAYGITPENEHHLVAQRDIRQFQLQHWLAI

For the molecule `Cc1c(P(=S)(c2ccccc2)c2ccccc2)n2ccccc2[n+]1C/C=C/c1ccccc1`, the inhibition (usually the relative decrease from the control value, in per cent) in experiment [1] was 68.4%; in experiment [2], 101%; in [3], 89%; in [4] it was 83.2%; in experiment [5], 57.4%; in experiment [6], 67.2%. Besides, the inhibition in experiment [7] was 45.7%; in experiment [8], 43.6%; in experiment [9], 1.99%; in experiment [10] it was 36.1%; in experiment [11] it was 15%; in experiment [12], 6.66%. Besides, the inhibition in experiment [13] was 29.7%; in experiment [14], 42.1%.

For the molecule `CN(C)C(=O)N[C@H]1CC[C@H](CCN2CCN(c3cccc(Cl)c3Cl)CC2)CC1`, the inhibition is 64% in [1]; 98% in experiment [2]; 59.3% in experiment [3]; 49.7% in experiment [4]; 29.1% in experiment [5]; 90.6% in [7]. The inhibition in [8] is 69.7%; in experiment [9], 48%; in experiment [10] it was 92.4%; in experiment [11] it was 4.23%; in experiment [12], 29%; in [13] it was 55%. Besides, the inhibition in experiment [14] is 69.8%.

As to `Cc1cc(NC(=O)NCCN2CCC(O)(Cc3ccccc3)CC2)c2ccccc2n1`, the inhibition in [1] is 17.1%; in experiment [2] it was 37.3%; in [3], 44%; in experiment [4] it was 69.5%; in experiment [5] it was 16.1%; in experiment [6], 56.9%. Moreover, the inhibition in experiment [7] was 29.6%; in [8] it was 8.02%; in [9], 5.03%; in experiment [10], 25.5%; in [11], 31%; in experiment [12], 44.3%. Also, the inhibition was 66.3% in [13] and 5.79% in [14].

For the molecule `NCCc1cn(S(=O)(=O)c2c(Cl)nc3sccn23)c2ccccc12`, the inhibition in experiment [1] is 16.1%; in [2], 42.5%; in experiment [3] it was 0.78%; in [4] it was 84.1%; in experiment [5] it was 15.1%; in experiment [6], 78.7%. In addition, the inhibition is 47.2% in [7]; 99.3% in experiment [8]; 23.3% in experiment [9]; 44.4% in [10]; 55.7% in experiment [11]; -4.24% in experiment [12]. Further, the values for the inhibition in experiment [13] and in experiment [14] were 40.4% and 28.4%, respectively.

Regarding `c1nc(CC2CCNCC2)c[nH]1`, the inhibition is -0.76% in experiment [1]; -1.91% in experiment [2]; 1.07% in [3]; 15.7% in experiment [4]; 10.6% in [5]; 38.7% in experiment [6]. For the same molecule, the inhibition in experiment [7] was 23%; in [8] it was 18.8%; in experiment [9] it was 9.31%; in experiment [10], -4.6%; in experiment [11], 95.9%; in experiment [13], 1.26%. Further, the inhibition in experiment [14] was -4.49%.

Turning to `COc1ccc(NC(=O)c2ccc(-c3ccc(-c4noc(C)n4)cc3C)cc2)cc1OCCN(C)C`, the inhibition in experiment [1] was 7.57%; in experiment [2] it was 79%; in [3] it was 37.9%; in experiment [4], 94%; in experiment [5] it was 80.8%; in experiment [6], 70%. The inhibition in [7] is 77.3%; in [9], 52.5%; in experiment [10], 4.01%; in experiment [11], 65.4%; in experiment [12], 31.1%; in experiment [13], 55.4%. In addition, the inhibition in experiment [14] was 65.6%.

Turning to `CN1CCC(C(=O)c2cccc(NC(=O)c3c(F)cc(F)cc3F)n2)CC1`, the inhibition in experiment [1] is 27%; in experiment [2], 6.36%; in experiment [3], 64%; in experiment [4], 23.5%; in experiment [5], -1.5%; in [6], 81.6%. Further, the inhibition was 20.8% in [7]; 11.4% in experiment [8]; 102% in [9]; -2.95% in [10]; 3.79% in [11]; 10.4% in [13]. The inhibition in experiment [14] is 27.2%.

For `C[N+]1(C)[C@@H]2C[C@@H](OC(=O)C(O)(c3cccs3)c3cccs3)C[C@H]1[C@@H]1O[C@@H]12`, the inhibition is 98.8% in experiment [1]; -0.27% in experiment [2]; 97.4% in [3]; -2.62% in experiment [4]; 94.2% in experiment [5]; 32.7% in experiment [6]. In addition, the inhibition in experiment [7] was 8.74%; in experiment [8], -5.82%; in experiment [9], 11.2%; in [10] it was 7.61%; in experiment [12], 66.3%; in experiment [13], 30%. Besides, the inhibition in experiment [14] is 2.25%.

In the case of `CN[C@@H]1CCc2[nH]c3ccc(C(N)=O)cc3c2C1`, the inhibition in experiment [1] was -3.71%; in experiment [3] it was -1.58%; in experiment [4], -1.01%; in experiment [5] it was 10.5%; in experiment [6], 42.1%; in [7], 13.7%. Also, the inhibition in experiment [8] was 24.2%; in experiment [9], 79.1%; in experiment [10] it was 1.5%; in experiment [11] it was 11.7%; in experiment [12], -4.51%; in experiment [13], 7.67%. For the same molecule, the inhibition in experiment [14] is 9.03%.
